# According to PubChem BioAssay (NCI):
#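 A five-concentration, 48-hour dose response in 96-well plates underlies each endpoint, interpolated linearly between surrounding concentrations. The concentration for full growth arrest is given as TGI.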
# Key:
# Test in all cases: NCI anticancer screen, dose series, 48 h
# [1] = system: COLO 205 colon
# [2] = system: SNB-19 CNS
# [3] = system: U251 CNS
# [4] = system: HCT-116 colon
# [5] = system: RXF 393 renal
# [6] = system: CCRF-CEM leukemia
# [7] = system: PC-3 prostate
# [8] = system: OVCAR-5 ovarian
# [9] = system: KM12 colon
# [10] = system: OVCAR-8 ovarian
# [11] = system: HS 578T breast
# [12] = system: A498 renal
# [13] = system: LOX IMVI melanoma
# [14] = system: SNB-75 CNS
# [15] = system: K-562 leukemia
# [16] = system: BT-549 breast
# [17] = system: CAKI-1 renal
# [18] = system: ACHN renal
# [19] = system: HOP-92 NSCLC
# [20] = system: HCT-15 colon
# [21] = system: HCC-2998 colon
# [22] = system: SN12C renal
# [23] = system: SK-MEL-28 melanoma
# [24] = system: A549 NSCLC
# [25] = system: NCI-H226 lung
# [26] = system: NCI-H522 lung
# [27] = system: MDA-MB-435
# [28] = system: OVCAR-4 ovarian
# [29] = system: MALME-3M melanoma
# [30] = system: SF-539 CNS
# [31] = system: T-47D breast
# [32] = system: NCI/ADR-RES ovarian
# [33] = system: TK-10 renal
# [34] = system: UO-31 renal
# [35] = system: MDA-N
# [36] = system: MCF7 breast
# [37] = system: 786-0 renal
# [38] = system: IGROV1 ovarian
# [39] = system: SK-MEL-5 melanoma
# [40] = system: OVCAR-3 ovarian
# [41] = system: SW-620 colon
# [42] = system: HOP-62 NSCLC
# [43] = system: HT29 colon
# [44] = system: UACC-62 melanoma
# [45] = system: EKVX NSCLC
# [46] = system: SK-MEL-2 melanoma
# [47] = system: MDA-MB-231 breast
# [48] = system: SF-295 CNS
# [49] = system: NCI-H23 lung
# [50] = system: SK-OV-3 ovarian
# [51] = system: SF-268 CNS
# [52] = system: DU-145 prostate
# [53] = system: MOLT-4 leukemia
# [54] = system: NCI-H460 lung
# [55] = system: RPMI-8226 leukemia
# [56] = system: M14 melanoma
# [57] = system: HL-60(TB) leukemia
# [58] = system: UACC-257 melanoma
compound,measurement,setting,value
Nc1nc(Cl)c(N)c(NCC2(CO)CCC(OCc3ccccc3)C2)n1 (stereo not drawn),TGI,[1],> 100 µM
same,TGI,[2],> 100 µM
same,TGI,[3],> 100 µM
same,TGI,[4],> 100 µM
same,TGI,[5],> 100 µM
same,TGI,[6],> 100 µM
same,TGI,[7],> 100 µM
same,TGI,[8],> 100 µM
same,TGI,[9],> 100 µM
same,TGI,[10],> 100 µM
same,TGI,[11],> 100 µM
same,TGI,[12],81.5 µM
same,TGI,[13],> 100 µM
same,TGI,[14],> 100 µM
same,TGI,[15],> 100 µM
same,TGI,[16],> 100 µM
same,TGI,[17],> 100 µM
same,TGI,[18],> 100 µM
same,TGI,[19],> 100 µM
same,TGI,[20],> 100 µM
same,TGI,[21],> 100 µM
same,TGI,[22],> 100 µM
same,TGI,[23],> 100 µM
same,TGI,[24],> 100 µM
same,TGI,[25],> 100 µM
same,TGI,[26],> 100 µM
same,TGI,[27],> 100 µM
same,TGI,[28],> 100 µM
same,TGI,[29],> 100 µM
same,TGI,[30],> 100 µM
same,TGI,[31],> 100 µM
same,TGI,[32],> 100 µM
same,TGI,[33],> 100 µM
same,TGI,[34],> 100 µM
same,TGI,[35],> 100 µM
same,TGI,[36],> 100 µM
same,TGI,[37],> 100 µM
same,TGI,[38],> 100 µM
same,TGI,[39],> 100 µM
same,TGI,[40],> 100 µM
same,TGI,[41],> 100 µM
same,TGI,[42],> 100 µM
same,TGI,[43],> 100 µM
same,TGI,[44],> 100 µM
same,TGI,[45],> 100 µM
same,TGI,[46],> 100 µM
same,TGI,[47],> 100 µM
same,TGI,[48],> 100 µM
same,TGI,[49],> 100 µM
same,TGI,[50],> 100 µM
same,TGI,[51],> 100 µM
same,TGI,[52],> 100 µM
same,TGI,[53],> 100 µM
same,TGI,[54],> 100 µM
Brc1ccc(-c2[nH]c3ccccc3c2/C=N\Nc2ccc(-c3nc4ccccc4[nH]3)cc2)cc1,TGI,[1],0.0834 µM
same,TGI,[2],> 100 µM
same,TGI,[3],> 42.1 µM
same,TGI,[5],> 43.6 µM
same,TGI,[6],> 68.6 µM
same,TGI,[7],> 100 µM
same,TGI,[8],> 67.1 µM
same,TGI,[9],> 100 µM
same,TGI,[10],> 58.5 µM
same,TGI,[11],< 0.01 µM
same,TGI,[13],> 100 µM
same,TGI,[15],> 39.2 µM
same,TGI,[16],> 100 µM
same,TGI,[55],25.4 µM
same,TGI,[17],> 100 µM
same,TGI,[18],17.3 µM
same,TGI,[20],> 37 µM
same,TGI,[21],< 0.01 µM
same,TGI,[22],> 100 µM
same,TGI,[24],> 100 µM
same,TGI,[26],< 0.01 µM
same,TGI,[28],> 100 µM
same,TGI,[29],24 µM
same,TGI,[31],> 100 µM
same,TGI,[56],> 100 µM
same,TGI,[32],> 100 µM
same,TGI,[33],> 100 µM
same,TGI,[34],> 100 µM
same,TGI,[35],< 0.01 µM
same,TGI,[36],> 100 µM
same,TGI,[37],> 42 µM
same,TGI,[38],> 88.3 µM
same,TGI,[39],1.41 µM
same,TGI,[40],> 100 µM
same,TGI,[41],> 49.5 µM
same,TGI,[42],> 68.5 µM
same,TGI,[44],> 100 µM
same,TGI,[45],> 52.2 µM
same,TGI,[46],> 35.4 µM
same,TGI,[47],0.559 µM
same,TGI,[48],> 100 µM
same,TGI,[49],> 46.6 µM
same,TGI,[50],> 100 µM
same,TGI,[51],6.28 µM
same,TGI,[57],> 100 µM
same,TGI,[52],> 31.8 µM
same,TGI,[58],> 100 µM
same,TGI,[53],22.1 µM
same,TGI,[54],> 51.6 µM
